# Test results taken from patent US6106858A, “Modulation of drug loading in multivescular liposomes” (SkyePharma, Inc., priority 1997, dated 2000).
# Several values for one entry are separate records, joined by “and”; a condition that tells them apart may be missing. Equal entries are not always repeated. Where two headings read alike, the source gives them in different places.
# Legend:
# [1] = Drug loading of multivesicular liposomes (MVL): drug concentration of suspension relative to lipocrit; type: physicochemical
# [2] = Percent encapsulation (percent yield) of drug in final MVL suspension; type: physicochemical
# [3] = cited from earlier work
# [4] = Integrity of encapsulated IGF-I by SDS-PAGE and RP-HPLC / characterization of encapsulated protein; type: physicochemical
# Source text: (§1) The physicochemical integrity of the encapsulated IGF-I was confirmed by SDS-PAGE assay using Novex NuPage gel as well as by RP-HPLC assay using a C18 symmetric column. The encapsulated protein was extracted using 75:25 IPA:2N Citric Acid. The bioactivity of the encapsulated IGF-I was confirmed by a mitogenic bioassay using MG-63 human osteosarcoma cell line and 3-(4,5-dimethylthiazol-2-yl)-2,5-diphenyltetrazolium bromide (MTT) stain according to the method of W. Lopaczynski et al., Regulatory Peptides, 48:207-216, 1993. The MG-63 cells were obtained from the American Type Culture Collection (ATCC# CRL 1427), and the dose dependent mitogenic response of quiescent MG-63 cells to added IGF-I was determined.
# [5] = Percent free drug in MVL suspension; details: 125 mL scale, first aqueous: 15 mg/mL, 8.0 w/v % sucrose, 20 mM ammonium citrate, ~321 mOsm
# Protocol: As used herein, "percent free drug" means the ratio of the amount of drug exterior to the liposomes in the final liposome suspension to the total amount of drug in the final suspension (the final product) multiplied by 100. [formula]
# 125 mL of first aqueous solution was mixed with 125 mL of the lipid component using a high-shear double-mixing vessel system to obtain the first emulsion. […] The aqueous and organic components were mixed at a speed of 8000 rpm for 30 minutes in the first emulsion vessel. […]
# Percent free drug was calculated as the percent ratio of the amount of drug in the supernatant to the amount of drug in the final suspension. Percent free drug can also be calculated as the percent ratio of the drug concentration in the supernatant to that in the suspension, times (1-lipocrit) Drug loading, which measures the amount of drug encapsulated in each unit of the encapsulated volume, is approximately equal to and can be estimated (assuming low percent free drug) as the ratio of the drug concentration of the final liposome suspension to the lipocrit. […]
# Using a reference absorbance standard established based on drug solutions of known concentration in the same dissolving solution, the concentrations of drug in the suspension and supernatant were calculated.
# [6] = Lipocrit of MVL suspension; type: physicochemical; details: 125 mL scale, first aqueous: 15 mg/mL, 20 mM ammonium citrate
# Protocol: As used herein, "lipocrit," which is defined in analogy to hematocrit, means the ratio of the volume occupied by the liposomes to the total suspension volume multiplied by 100. [formula]
# Thus, percent yield of drug was calculated as the ratio of the drug concentration in the final suspension times the volume of the final suspension to the drug concentration in the first aqueous solution times the volume of the first aqueous solution. Lipocrit was calculated, in analogy to hematocrit, as the percent ratio of the pellet volume to the suspension volume (see conditions below for obtaining the pellet volume).
# To calculate the lipocrit about 50 μL of the multivesicular liposome suspension was taken up into a capillary tube, and end of the tube was sealed while ensuring that the suspension contained no air bubbles. The suspension was spun in a centrifuge at 600×g for 10 minutes to obtain a pellet layer and a supernatant layer. The percent ratio of the length of the tube occupied by the pellet to that occupied by the suspension gives the lipocrit.
# [7] = tested on: MG-63 human osteosarcoma cell line; assay: Mitogenic bioassay of extracted IGF-I with MTT stain; type: cell-based; details: mitogenic response of quiescent MG-63 cells, versus unencapsulated standard
# Source text: as §1
# [8] = Solubility of IGF-I versus pH; type: physicochemical
# Protocol: Further studies were conducted using in the first aqueous component concentrations of IGF-I ranging from 10 to 80 mg/mL, either with or without 100 mM HCl or 25 mM citric acid at constant pH. […] Studies have shown that up to about 300 mg/mL of IGF-I is soluble at a pH below 5.
# [9] = prior-art multivesicular liposomes; cited from earlier work
# [10] = prior-art multivesicular liposomes; cited from earlier work; remark: listed apart in the source
molecule,measurement,setting,value
"CC(C)C[C@H](NC(=O)[C@H](Cc1ccccc1)NC(=O)CNC(=O)CNC(=O)[C@@H](N)Cc1ccc(O)cc1)C(=O)O [Enkephalin, reference compound]",effect of osmolarity of first aqueous solution on drug loading,[1],decreasing of osmolarity resulting in increased drug loading
same,Drug Loading,"[1]; first aqueous: 5 mg/mL, 0.0 w/v % sucrose, 25 mM citric acid, est. 35.5 mOsm",50.8 mg/mL
same,Drug Loading,"[1]; first aqueous: 5 mg/mL, 2.5 w/v % sucrose, 25 mM citric acid, est. 111.5 mOsm",13.4 mg/mL
same,Drug Loading,"[1]; first aqueous: 5 mg/mL, 5.0 w/v % sucrose, 25 mM citric acid, est. 191.5 mOsm",6.4 mg/mL
same,% Yield,[2],77.5% and 71.8% and 72.5%
same,effect of osmolarity of first aqueous solution on percent yield,[2],not significantly changed by a decrease in osmolarity
"CCNC(=O)[C@@H]1CCCN1C(=O)[C@H](CCCNC(=N)N)NC(=O)[C@H](CC(C)C)NC(=O)[C@@H](CC(C)C)NC(=O)[C@H](Cc1ccc(O)cc1)NC(=O)[C@H](CO)NC(=O)[C@H](Cc1c[nH]c2ccccc12)NC(=O)[C@H](Cc1c[nH]cn1)NC(=O)[C@@H]1CCC(=O)N1 [Leuprolide, reference compound]",effect of osmolarity of first aqueous solution on drug loading,[1],decreasing of osmolarity resulting in increased drug loading
same,Drug Loading,"[1]; first aqueous: 15 mg/mL, 4.0 w/v % sucrose, 100 mM phosphoric acid, est. 261.6 mOsm",17.9 mg/mL
same,Drug Loading,"[1]; first aqueous: 15 mg/mL, 6.0 w/v % sucrose, 100 mM phosphoric acid, est. 328.6 mOsm",10.9 mg/mL
same,effect of osmolarity of first aqueous solution on percent yield,[2]; MVL,A similar percent yield was maintained across the range of osmolarities tested
same,% Yield,"[2]; MVL, first aqueous: 15 mg/mL, 4.0 w/v % sucrose, 100 mM phosphoric acid, est. 261.6 mOsm",54.1%
same,% Yield,"[2]; MVL, first aqueous: 15 mg/mL, 6.0 w/v % sucrose, 100 mM phosphoric acid, est. 328.6 mOsm",56.2%
OC[C@H]1O[C@@](CO)(O[C@H]2O[C@H](CO)[C@@H](O)[C@H](O)[C@H]2O)[C@@H](O)[C@@H]1O [sucrose],Osmolarity for sucrose,[3]; 0.5 w/v %,15 mOsm
same,Osmolarity for sucrose,[3]; 1.0 w/v %,30 mOsm
same,Osmolarity for sucrose,[3]; 1.5 w/v %,45 mOsm
same,Osmolarity for sucrose,[3]; 2.0 w/v %,60 mOsm
same,Osmolarity for sucrose,[3]; 2.5 w/v %,76 mOsm
same,Osmolarity for sucrose,[3]; 3.0 w/v %,91 mOsm
same,Osmolarity for sucrose,[3]; 4.0 w/v %,123 mOsm
same,Osmolarity for sucrose,[3]; 5.0 w/v %,156 mOsm
same,Osmolarity for sucrose,[3]; 6.0 w/v %,190 mOsm
same,Osmolarity for sucrose,[3]; 7.0 w/v %,225 mOsm
same,Osmolarity for sucrose,[3]; 8.0 w/v %,261 mOsm
"IGF-I: insulin-like growth factor I (IGF-I), encapsulated in MVLs",physicochemical integrity of encapsulated IGF-I,"[4]; SDS-PAGE and RP-HPLC, extracted with 75:25 IPA:2N citric acid",confirmed
same,degradation of encapsulated protein,[4]; Table 6A formulations (100 mM HCl),showed some degradation
same,presence of IGF-I oligomers,"[4]; absence of an acid buffer, Table 6B",increased presence of IGF-I oligomers in the absence of an acid buffer
same,% Free IGF-I,[5],0.18%
same,% Lipocrit,"[6]; 5.0 w/v % sucrose, ~216 mOsm",36.7%
same,% Lipocrit,"[6]; 8.0 w/v % sucrose, ~321 mOsm",41.8%
same,bioactivity of extracted IGF-I,[7],approximately equivalent to that of an unencapsulated standard
same,solubility and bioavailability of encapsulated IGF-I versus pH,"[8]; 10 to 80 mg/mL IGF-I, with or without 100 mM HCl or 25 mM citric acid",varied according to pH of the first aqueous component
same,solubility,[8]; pH below 5,about 300 mg/mL
cytosine arabinoside [Cytarabine],encapsulation efficiency,[9],relatively low
same,Drug Loading,"[1]; first aqueous: 40 mg/mL, 0.0 w/v % sucrose, 20 mM citric acid, est. 185.9 mOsm",61.7 mg/mL
same,Drug Loading,"[1]; first aqueous: 40 mg/mL, 2.0 w/v % sucrose, 20 mM citric acid, est. 245.9 mOsm",45.2 mg/mL
same,Drug Loading,"[1]; first aqueous: 40 mg/mL, 5.0 w/v % sucrose, 20 mM citric acid, est. 341.9 mOsm",30.8 mg/mL
same,Drug Loading,"[1]; first aqueous: 40 mg/mL, 8.0 w/v % sucrose, 20 mM citric acid, est. 446.9 mOsm",21.0 mg/mL
same,% Yield,[2],57.1% and 62.6% and 77.3% and 69.6%
same,effect of osmolarity of first aqueous solution on percent yield,[2],remaining relatively constant
same,release rate of encapsulated molecules in biological fluids,[10],faster than is therapeutically desirable
